Data on 22 compounds can be found in the NIST ThermoML archive (doi:10.1016/j.jct.2011.04.018).

± gives the expanded uncertainty stated by the source.

The nature of this series: activity coefficient (dimensionless); of the first substance listed, at infinite dilution; xn = mol fraction of the nth substance listed. As to conditions: 101 kPa, Liquid, Chromatography, x1 = 0.

For the compound `C1CCCC1` [cyclopentane] + O=S(=O)([N-]S(=O)(=O)C(F)(F)F)C(F)(F)F.OCCC[n+]1ccccc1, the activity coefficient (308.15 K) came out at 15.8 ± 1.1; the activity coefficient (318.15 K) amounted to 14.6 ± 1; the activity coefficient (328.15 K) amounted to 13.5 ± 0.9; the activity coefficient (338.15 K) was found to be 12.5 ± 0.9; the activity coefficient (348.15 K) was determined as 11.7 ± 0.8; the activity coefficient (358.15 K) came to 11.1 ± 0.8. Where the note is “368.15 K”, the activity coefficient amounted to 10.4 ± 0.7.
As to `CCCCCCCCCC` [decane] + O=S(=O)([N-]S(=O)(=O)C(F)(F)F)C(F)(F)F.OCCC[n+]1ccccc1, the activity coefficient is, setting by setting: (308.15 K) 327 ± 22; (318.15 K) 284 ± 20; (328.15 K) 245 ± 17; (338.15 K) 214 ± 15; (348.15 K) 190 ± 13; (358.15 K) 168 ± 12. The activity coefficient (368.15 K) amounted to 150 ± 10.
Turning to `CCOCC` [diethyl ether] + O=S(=O)([N-]S(=O)(=O)C(F)(F)F)C(F)(F)F.OCCC[n+]1ccccc1, the activity coefficient (308.15 K) was 2.71 ± 0.18; the activity coefficient (318.15 K) is 2.77 ± 0.19; the activity coefficient (328.15 K) was 2.82 ± 0.19; the activity coefficient (338.15 K) turned out to be 2.87 ± 0.2; the activity coefficient (348.15 K) is 2.91 ± 0.2; the activity coefficient (358.15 K) came to 2.97 ± 0.2. Besides, where the note is “368.15 K”, the activity coefficient was found to be 3.01 ± 0.2.
With `CCCOCCC` [dipropyl ether] + O=S(=O)([N-]S(=O)(=O)C(F)(F)F)C(F)(F)F.OCCC[n+]1ccccc1, the activity coefficient is, setting by setting: (308.15 K) 9.62 ± 0.66; (318.15 K) 9.45 ± 0.64; (328.15 K) 9.28 ± 0.63; (338.15 K) 9.12 ± 0.62; (348.15 K) 8.99 ± 0.61; (358.15 K) 8.87 ± 0.61. Also, under “368.15 K”, the activity coefficient turned out to be 8.75 ± 0.6.
In the case of `CCO` [ethanol] + O=S(=O)([N-]S(=O)(=O)C(F)(F)F)C(F)(F)F.OCCC[n+]1ccccc1, the activity coefficient runs as follows: (318.15 K) 1.16 ± 0.07; (328.15 K) 1.11 ± 0.07; (338.15 K) 1.06 ± 0.07; (348.15 K) 1.02 ± 0.06; (358.15 K) 0.984 ± 0.062; (368.15 K) 0.949 ± 0.06. The activity coefficient (378.15 K) was 0.919 ± 0.058.
As to `CCc1ccccc1` [ethylbenzene] + O=S(=O)([N-]S(=O)(=O)C(F)(F)F)C(F)(F)F.OCCC[n+]1ccccc1, the activity coefficient reads like this: (318.15 K) 3.96 ± 0.27; (328.15 K) 3.93 ± 0.27; (338.15 K) 3.9 ± 0.27; (348.15 K) 3.87 ± 0.26; (358.15 K) 3.84 ± 0.26; (368.15 K) 3.82 ± 0.26. For the same compound, under “378.15 K”, the activity coefficient came out at 3.79 ± 0.26.
Regarding `CCCCCCC` [heptane] + O=S(=O)([N-]S(=O)(=O)C(F)(F)F)C(F)(F)F.OCCC[n+]1ccccc1, the activity coefficient reads like this: (308.15 K) 82 ± 5.6; (318.15 K) 73.8 ± 5.1; (328.15 K) 66.2 ± 4.5; (338.15 K) 59.3 ± 4.1; (348.15 K) 54.3 ± 3.7; (358.15 K) 49.4 ± 3.4. Besides, where the note is “368.15 K”, the activity coefficient stood at 45.8 ± 3.1.
In the case of `C=CCCCC` [hex-1-ene] + O=S(=O)([N-]S(=O)(=O)C(F)(F)F)C(F)(F)F.OCCC[n+]1ccccc1, the activity coefficient was determined as 22.7 ± 1.6 (308.15 K); 21.2 ± 1.4 (318.15 K); 19.7 ± 1.3 (328.15 K); 18.4 ± 1.3 (338.15 K); 17.3 ± 1.2 (348.15 K); 16.4 ± 1.1 (358.15 K).
For `CCCCCC` [hexane] + O=S(=O)([N-]S(=O)(=O)C(F)(F)F)C(F)(F)F.OCCC[n+]1ccccc1, the activity coefficient stood at 51.3 ± 3.5 (308.15 K); 46.7 ± 3.2 (318.15 K); 42.3 ± 2.9 (328.15 K); 38.5 ± 2.6 (338.15 K); 35.6 ± 2.4 (348.15 K); 32.8 ± 2.2 (358.15 K).
Take `CO` [methanol] + O=S(=O)([N-]S(=O)(=O)C(F)(F)F)C(F)(F)F.OCCC[n+]1ccccc1: the activity coefficient runs as follows: (318.15 K) 0.87 ± 0.056; (328.15 K) 0.836 ± 0.054; (338.15 K) 0.804 ± 0.052; (348.15 K) 0.776 ± 0.051; (358.15 K) 0.749 ± 0.049; (368.15 K) 0.725 ± 0.048. For the same compound, for the setting “378.15 K”, the activity coefficient stood at 0.703 ± 0.047.
In the case of `CC1CCCCC1` [methylcyclohexane] + O=S(=O)([N-]S(=O)(=O)C(F)(F)F)C(F)(F)F.OCCC[n+]1ccccc1, the activity coefficient reads like this: (308.15 K) 38.7 ± 2.6; (318.15 K) 35.2 ± 2.4; (328.15 K) 31.9 ± 2.2; (338.15 K) 29 ± 2; (348.15 K) 26.8 ± 1.8; (358.15 K) 24.7 ± 1.7. In addition, for the setting “368.15 K”, the activity coefficient was 22.9 ± 1.6.
For the compound `CCCCCCCCC` [nonane] + O=S(=O)([N-]S(=O)(=O)C(F)(F)F)C(F)(F)F.OCCC[n+]1ccccc1, the activity coefficient amounted to 206 ± 14 (308.15 K); 181 ± 12 (318.15 K); 157 ± 11 (328.15 K); 139 ± 10 (338.15 K); 125 ± 9 (348.15 K); 111 ± 8 (358.15 K). Also, the activity coefficient (368.15 K) is 99.7 ± 6.8.
Consider `C=CCCCCCC` [oct-1-ene] + O=S(=O)([N-]S(=O)(=O)C(F)(F)F)C(F)(F)F.OCCC[n+]1ccccc1, for which the activity coefficient amounted to 58 ± 4 (308.15 K); 53 ± 3.6 (318.15 K); 48.5 ± 3.3 (328.15 K); 44.4 ± 3 (338.15 K); 41.1 ± 2.8 (348.15 K); 38.1 ± 2.6 (358.15 K). The activity coefficient (368.15 K) was 35.6 ± 2.4.
With `CCCCCCCC` [octane] + O=S(=O)([N-]S(=O)(=O)C(F)(F)F)C(F)(F)F.OCCC[n+]1ccccc1, the activity coefficient runs as follows: (308.15 K) 130 ± 9; (318.15 K) 116 ± 8; (328.15 K) 102 ± 7; (338.15 K) 91.1 ± 6.2; (348.15 K) 81.3 ± 5.6; (358.15 K) 73.6 ± 5. Under “368.15 K”, the activity coefficient was found to be 67.5 ± 4.6.
As to `CCCC(C)=O` [pentan-2-one] + O=S(=O)([N-]S(=O)(=O)C(F)(F)F)C(F)(F)F.OCCC[n+]1ccccc1, the activity coefficient is, setting by setting: (318.15 K) 0.885 ± 0.056; (328.15 K) 0.91 ± 0.058; (338.15 K) 0.937 ± 0.059; (348.15 K) 0.96 ± 0.06; (358.15 K) 0.984 ± 0.062; (368.15 K) 1.01 ± 0.06. Moreover, the activity coefficient (378.15 K) amounted to 1.03 ± 0.06.
On to `CCC(=O)CC` [pentan-3-one] + O=S(=O)([N-]S(=O)(=O)C(F)(F)F)C(F)(F)F.OCCC[n+]1ccccc1, for which the activity coefficient turned out to be 0.936 ± 0.059 (318.15 K); 0.963 ± 0.061 (328.15 K); 0.991 ± 0.062 (338.15 K); 1.02 ± 0.06 (348.15 K); 1.04 ± 0.07 (358.15 K); 1.07 ± 0.07 (368.15 K). In addition, the activity coefficient (378.15 K) was found to be 1.09 ± 0.07.
As for `CCCCC` [pentane] + O=S(=O)([N-]S(=O)(=O)C(F)(F)F)C(F)(F)F.OCCC[n+]1ccccc1, the activity coefficient by setting is: (308.15 K) 32.9 ± 2.3; (318.15 K) 30.2 ± 2.1; (328.15 K) 27.9 ± 1.9; (338.15 K) 25.8 ± 1.8; (348.15 K) 24.3 ± 1.7.
As to `CCCO` [propan-1-ol] + O=S(=O)([N-]S(=O)(=O)C(F)(F)F)C(F)(F)F.OCCC[n+]1ccccc1, the activity coefficient is 1.6 ± 0.11 (318.15 K); 1.52 ± 0.1 (328.15 K); 1.46 ± 0.1 (338.15 K); 1.39 ± 0.09 (348.15 K); 1.34 ± 0.09 (358.15 K); 1.28 ± 0.08 (368.15 K). For the setting “378.15 K”, the activity coefficient amounted to 1.24 ± 0.08.
As to `C1CCOC1` [tetrahydrofuran] + O=S(=O)([N-]S(=O)(=O)C(F)(F)F)C(F)(F)F.OCCC[n+]1ccccc1, the activity coefficient (318.15 K) was 0.695 ± 0.047; the activity coefficient (328.15 K) was 0.727 ± 0.048; the activity coefficient (338.15 K) was 0.757 ± 0.05; the activity coefficient (348.15 K) was 0.784 ± 0.051; the activity coefficient (358.15 K) is 0.812 ± 0.053; the activity coefficient (368.15 K) came out at 0.839 ± 0.054. In addition, the activity coefficient (378.15 K) was 0.866 ± 0.055.
In the case of `c1ccsc1` [thiophene] + O=S(=O)([N-]S(=O)(=O)C(F)(F)F)C(F)(F)F.OCCC[n+]1ccccc1, the activity coefficient (318.15 K) was found to be 1.27 ± 0.08; the activity coefficient (328.15 K) came to 1.28 ± 0.08; the activity coefficient (338.15 K) was found to be 1.29 ± 0.08; the activity coefficient (348.15 K) was 1.29 ± 0.08; the activity coefficient (358.15 K) came to 1.3 ± 0.08; the activity coefficient (368.15 K) is 1.31 ± 0.09. Besides, the activity coefficient (378.15 K) was 1.31 ± 0.09.
Consider `Cc1ccccc1` [toluene] + O=S(=O)([N-]S(=O)(=O)C(F)(F)F)C(F)(F)F.OCCC[n+]1ccccc1, for which the activity coefficient turned out to be 2.36 ± 0.16 (318.15 K); 2.37 ± 0.16 (328.15 K); 2.38 ± 0.16 (338.15 K); 2.39 ± 0.16 (348.15 K); 2.4 ± 0.16 (358.15 K); 2.41 ± 0.16 (368.15 K). For the same compound, the activity coefficient (378.15 K) worked out at 2.42 ± 0.16.
On to `O` [water] + O=S(=O)([N-]S(=O)(=O)C(F)(F)F)C(F)(F)F.OCCC[n+]1ccccc1, for which the activity coefficient (318.15 K) came out at 1.53 ± 0.1; the activity coefficient (328.15 K) was 1.42 ± 0.09; the activity coefficient (338.15 K) came out at 1.33 ± 0.09; the activity coefficient (348.15 K) turned out to be 1.24 ± 0.08; the activity coefficient (358.15 K) was found to be 1.17 ± 0.07; the activity coefficient (368.15 K) was 1.1 ± 0.07. For the same compound, where the note is “378.15 K”, the activity coefficient was 1.03 ± 0.06.
